Measured values published in patent US20190284640A1, “Methods and Systems for Predicting Response to Immunotherapies for Treatment of Cancer” (Vanderbilt University, priority 2018, published 2019).
“Also recorded” adds a separate entry of the source.

Legend:
[1] = system: p53 altered MMTV-Neu cells; test: Chemokine induction by doxorubicin in MMTV-Neu cells; format: cell-based, mouse
From the text: Doxorubicin induces T cell recruiting chemokines in p53 altered MMTV-Neu cells. FIG. 49.

[2] = system: TP53 mutant mouse breast cancer cells lines; test: Cytokine expression after doxorubicin in mouse breast cancer cell lines; format: cell-based
melanoma cell lines [3] = test: Phospho-flow cytometry of melanoma cell lines after IFNγ stimulation; format: cell-based, human; conditions: 15 min IFNγ; MHC-II(−) cell lines
Description: (§1) FIGS. 3A-F show characterization of MHC-II(+) melanoma cell lines. Melanoma cell lines were treated with IFNy for 24 h before collection and live-cell staining and flow cytometry analysis for (A) MHC-I (HLA-A/B/C), (B) MHC-II (HLA-DR), and (C) PD-L1. Bars represent mean ±S.E.M. for at least three experiments (D) Representative flow plots from (C). (E) Western blot analysis of melanoma cell lines after 24 or 48 h of IFNy stimulation. (F) Phosphorylation of STAT1 (top row) and STATS (bottom row) in melanoma cell lines at 15 min after IFNy stimulation. Histograms were colored according to the arcsinh transformed ratio or MFI medians relative to the table minimum value.
Phospho-flow cytometry. Melanoma cell lines were treated with Accutase™ (EMD Millipore, # SCR005) for 10 minutes at 37° C. to dissociate them from the plate. Dissociated cell lines were rested at 37° C. in a CO2 incubator for 30 minutes prior to stimulation. After resting, cells were stimulated by adding IFNy (Cell Signaling) at a final concentration of 100 ng/mL. During signaling, cells were kept in a 37° C. CO2 incubator. After 15 minutes of signaling, cells were fixed for 10 minutes at room temperature with a final concentration of 1.6% paraformaldehyde (Electron Microscopy Services). […] Samples were analyzed on a LSRII system (BD Biosciences).

[4] = system: melanoma PDX tissue slices; test: Ex vivo organotypic culture of PDX tumor slices with or without IFNγ; format: cell-based, human; conditions: PT1 and PT2 PDX tissue slices, 24-48 h
From the text: FIGS. 6A-D show Ex vivo culture of tumors derived from anti-PD-1-responding and non-responding patients identifies heterogeneity in interferon response. (A) Patient tumor blocks stained for HLA-DR (brown) and SOX10 (pink) at low (scale bar, 500 um) and high magnification (scale bar, […]); PT1: anti-PD-1 non-responder and PT2: anti-PD-1 responder. (B) Experimental schema. (C) Schema and images of PDX tissue sections (ex vivo organotypic culture). (D) Western blot analysis of tissue sections cultured in the presence or absence of IFNy for 24-48 h.
To test this hypothesis, patient-derived xenograft (PDX) models were utilized from the tumor resections of two melanoma patients who subsequently received anti-PD1 therapy; patient 1 (PT1; non-responder, 0% HLA-DR-positive, class II/III) and patient 2 (PT2; partial responder, heterogeneous 15% HLA-DR-positive, class Ib) (FIG. 6A). […] The resected tumors from PT1 and PT2 were serially transplanted to athymic nu/nu mice, which are highly deficient in functional T cells, ruling out a possible source of IFNγ (FIG. 6B). […] Thus, HLA-DR may be a marker of IFNγ activity in the microenvironment of some (but not all) tumors.
Cell and tumor culture. SKMEL-28 and WM115 cell lines were obtained from Dr. Kimberly Dahlman (Vanderbilt University), CHL-1 and HMCB melanoma cell lines were obtained from the laboratory of William Pao (Vanderbilt University). […]

melanoma cell lines [5] = test: Flow cytometry of melanoma cell lines under basal and IFNγ-stimulated conditions; format: cell-based, human
Description: as §1
FIGS. 4A-D show graphs illustrating mean expression levels of MHC-I, MHC-II, and PD-L1 at baseline and after IFNy stimulation. Melanoma cell lines were treated with 100 ng IFNy for 24 hr (shown as percentage positive in FIGS. 2A-C) prior to harvest and live-cell staining and flow cytometry analysis for (A) MHC-FHLA-A/B/C, (B) MHC-II/HLA-DR, and (C) PD-L1. Bars represent mean fluorescence intensity ±SEM for 3 experiments. (D) Histograms of HLA-DR surface expression over an extended (24-72 hr) IFNy treatment, as assessed by flow cytometry.
Cell surface expression mirrored mRNA expression patterns; MHC-I (HLA-A/B/C) was expressed ubiquitously among all cell lines under both basal and stimulated conditions, while MHC-II (HLA-DR) was present only on the intermediate/Ib (SKMEL5 and SKMEL28) and high/Ia cell lines (WM115 and A375; FIGS. 3A-C and 4A-D). […] The high (Ia) WM115 cell line was essentially 100% positive for HLA-DR at both basal and stimulated conditions.
Standard Flow Cytometry. Flow cytometry was performed using the following antibodies: HLA-DR/PE-Cy7 (Biolegend, clone L243. 1:20). CD274/PD-L1/APC (Biolegend, clone 29E.2A3, 1:200) and HLA-A/B/C-Alexa Fluor488 (1:100, Biolegend, clone W6/32) mouse MHC-II (I-A/I-E 1:20 Biolegend, clone M5/114.15.2). DAPI was used as a viability dye. Samples were analyzed on an Aria III laser system (BD Biosciences)
Cell and tumor culture. […]

melanoma cell lines [6] = test: Western blot of melanoma cell lines after IFNγ stimulation; format: cell-based, human
Description: as §1
Immunoblotting was performed as previously described^32 Briefly, cells were washed in cold phosphate-buffered saline, collected and lysed in 1×RIPA buffer (50 mM Tris (pH 7.4), 1% NP-40, 150 mM NaCl, 1 mM EDTA, 0.1% SDS, 0.25% sodium deoxycholate, 5 mM NaF, 5 mM Na3VO4, 10% glycerol, […] phenylmethyl-sulphonylfluoride and protease inhibitors) for 30 min on ice. Lysates were sonicated for 2-3 s to shear DNA and cleared by centrifugation at 13,200 r.p.m. for 15 min. Protein concentrations of the lysates were determined by BCA assay (Bio-Rad, Hercules, Calif.). Samples were separated by SDS-PAGE and transferred to nitrocellulose membrane. […]

COc1cccc2c1C(=O)c1c(O)c3c(c(O)c1C2=O)C[C@@](O)(C(=O)CO)C[C@@H]3O[C@H]1C[C@H](N)[C@H](O)[C@H](C)O1 [Doxorubicin]
T cell recruiting chemokines [1]: induces | cytokine expression [2]: induce cytokine expression

IFNγ: recombinant human IFNγ (R&D Systems), stimulation at 100 ng/mL
STATS activation (melanoma cell lines [3]): preferentially activated | HLA-DR upregulation [4]: only the PT2 PDX model (anti-PD-1 responder) upregulated HLA-DR | HLA-DR expression (melanoma cell lines [5]; CHL-1 or HMCB, 72 hrs of IFNγ treatment): No significant increase | HLA-DR expression (melanoma cell lines [5]; SKMEL28 (intermediate/Ib)): potently induced | PD-L1 expression (melanoma cell lines [5]; all cell lines tested): potently induced; also recorded: significantly upregulated | CIITA expression (melanoma cell lines [6]; 24 or 48 h IFNγ): only induced in HLA-DR+ Ia/Ib cells | STAT1 activation (melanoma cell lines [6]; all cell lines): robustly activated
